Values after ≈ are worked out from the molar mass of the structure shown.
Tests used:
[1] = dissolution in MFD solution (Example 8); assay type: physicochemical; settings: 40 ml MFD solution
Protocol: For a comparative dissolution study, Control H, consisting of 111.4 mg of the crystalline drug, was used. The dissolution of drug was studied by placing the bilayer tablet and Control H each in 40 ml of MFD solution.

physchem = settings: water
[2] = dissolution in phosphate-buffered solution pH 7.2 (Example 7); assay type: physicochemical; settings: 50 ml phosphate-buffered solution pH 7.2
Protocol: For a comparative dissolution study, Control G, consisting of 100 mg of crystalline Drug 2 was prepared. The dissolution of drug was studied by placing one each of the bi-layer tablet and Control G preparation containing an equal amount of Drug 2 in 50 ml of the phosphate-buffered solution of Example 3 (pH 7.2, osmotic pressure 5.3 atm) to simulate an intestinal environment of use.

[3] = dissolution in phosphate buffered saline (PBS) solution (Example 3); assay type: physicochemical; settings: 35 ml PBS solution
Protocol: For a comparative dissolution study, Control E, consisting of 35 mg of crystalline Drug 2 was prepared. The dissolution of drug was studied by placing two of the trilayer tablets and Control E each in 35 ml of a phosphate buffered saline (PBS) solution composed of 6 mM KH2PO4, 5 mM NaOH, 60 mM KC1 and 30 mM NaCl. The data for the trilayer tablet is the average of the values for the two tablets tested.

[4] = dissolution in MFD solution (Example 6); assay type: physicochemical; settings: 50 ml MFD solution
Protocol: A Model Fasted Duodenum (MFD) solution was prepared to mimic the chemical environment of the small intestine, the solution comprising a phosphate-buffered saline solution containing 14.7 mM sodium taurocholic acid and 2.8 mM of 1-palmitoyl-2-oleyl-sn-glycero-3-phosphocholine with a pH of 6.5.
The data for the tri-layer tablet is the average of the values for the two tablets tested.

For CN[C@H]1CC[C@@H](c2ccc(Cl)c(Cl)c2)c2ccccc21 [sertraline], the MDC [1] was 401 µg/mL, the “[Drug]” value ([1]; time 0 hr) was 0 µg/mL and the “[Drug]” value ([1]; time 0.2 hr) was 278 µg/mL. The “[Drug]” value ([1]; time 0.3 hr) was 401 µg/mL, the “[Drug]” value ([1]; time 0.7 hr) was 341 µg/mL and the “[Drug]” value ([1]; time 1.5 hr) was 217 µg/mL. The “[Drug]” value ([1]; time 2 hr) was 188 µg/mL, the “[Drug]” value ([1]; time 3 hr) was 168 µg/mL and the “[Drug]” value ([1]; time 4 hr) was 152 µg/mL. For the same compound, the “[Drug]” value ([1]; time 6 hr) was 160 µg/mL, the “[Drug]” value ([1]; time 10 hr) was 137 µg/mL and the “[Drug]” value ([1]; time 14 hr) was 135 µg/mL. For the same compound, the “[Drug]” value ([1]; time 24 hr) was 191 µg/mL, the AUC ([1]; up to 0 hr) was 0 µg·min/mL and the AUC ([1]; up to 0.2 hr) was 830 µg·min/mL. For the same compound, the AUC ([1]; up to 0.3 hr) was 4,230 min·µg/mL, the AUC ([1]; up to 0.7 hr) was 11,650 min·µg/mL and the AUC ([1]; up to 1.5 hr) was 25,610 min·µg/mL. For the same compound, the AUC ([1]; up to 2 hr) was 31,700 min·µg/mL, the AUC ([1]; up to 3 hr) was 42,400 min·µg/mL and the AUC ([1]; up to 4 hr) was 52,000 min·µg/mL. The AUC ([1]; up to 6 hr) was 70,640 min·µg/mL, the AUC ([1]; up to 10 hr) was 106,200 min·µg/mL and the AUC ([1]; up to 14 hr) was 122,500 min·µg/mL.

With O=C(N[C@@H](Cc1ccccc1)[C@@H](O)C(=O)N1C[C@@H](O)[C@@H](O)C1)c1cc2cc(Cl)ccc2[nH]1 [Drug 2] the solubility (physchem) was 80 µg/mL (≈ 175 µM), the MDC [2] was 77 µg/mL and the “[Drug]” value ([2]; time 0 hr) was 0 µg/mL. The “[Drug]” value ([2]; time 1 hr) was 59 µg/mL, the “[Drug]” value ([2]; time 2 hr) was 72 µg/mL and the “[Drug]” value ([2]; time 4 hr) was 72 µg/mL. The “[Drug]” value ([2]; time 8 hr) was 77 µg/mL, the “[Drug]” value ([2]; time 12 hr) was 71 µg/mL and the “[Drug]” value ([2]; time 18 hr) was 71 µg/mL. For the same compound, the “[Drug]” value ([2]; time 24 hr) was 75 µg/mL, the MDC [3] was 171 µg/mL and the “[Drug]” value ([3]; time 0.3 hr) was 99 µg/mL. The “[Drug]” value ([3]; time 1.5 hr) was 148 µg/mL, the “[Drug]” value ([3]; time 2.0 hr) was 165 µg/mL and the “[Drug]” value ([3]; time 3.0 hr) was 137 µg/mL. For the same compound, the “[Drug]” value ([3]; time 4.0 hr) was 142 µg/mL, the “[Drug]” value ([3]; time 12.0 hr) was 157 µg/mL and the “[Drug]” value ([3]; time 20.0 hr) was 171 µg/mL.

In the case of “[R-(R*,S*)]-5-chloro-N-[2-hydroxy-3-[methoxymethylamino)-3-1-(phenylmethyl)propyl]propyl]-1H-indole-2-carboxamide [Drug 1]”, the MDC [4] was 16 µg/mL, the “[Drug]” value ([4]; time 0 hr) was 0 µg/mL and the “[Drug]” value ([4]; time 2 hr) was 13 µg/mL. The “[Drug]” value ([4]; time 4 hr) was 16 µg/mL, the “[Drug]” value ([4]; time 8 hr) was 13 µg/mL and the “[Drug]” value ([4]; time 12 hr) was 15 µg/mL. For the same compound, the “[Drug]” value ([4]; time 20 hr) was 12 µg/mL and the “[Drug]” value ([4]; time 24 hr) was 11 µg/mL.

From patent publication EP1027888B1, “Osmotic system for delivery of solid amorphous dispersions of drugs” (Pfizer Products Inc., priority 1999, dated 2000)
